Measurements: patent publication US11447505B1, “Pyrrolo[2,3-b]pyridine compounds and their use in the treatment of cancer” (priority 2017, dated 2022)
Where two headings read alike, the source gives them in different places.

Legend:
[1] = molecular target: MRCKα (Homo sapiens (Human), UniProt Q5VT25); experiment: MRCKα kinase assay (IMAP fluorescence polarization); type: biochemical; details: 1 μM ATP; read-out: MRCK-a Average Ki
Text: (§1) MRCKα, MRCKβ, ROCK1 and ROCK2 Kinase Assays

[2] = molecular target: MRCKβ (Homo sapiens (Human), UniProt Q9Y5S2); experiment: MRCKβ kinase assay (IMAP fluorescence polarization); type: biochemical; details: 1 μM ATP; read-out: MRCK-B Average Ki
Text: as §1

[3] = molecular target: ROCK2 (Homo sapiens (Human), UniProt O75116); experiment: ROCK2 kinase assay (IMAP fluorescence polarization); type: biochemical; details: 1 μM ATP; read-out: ROCK2 Average Ki
Chain of ROCK2 (O75116 whole entry): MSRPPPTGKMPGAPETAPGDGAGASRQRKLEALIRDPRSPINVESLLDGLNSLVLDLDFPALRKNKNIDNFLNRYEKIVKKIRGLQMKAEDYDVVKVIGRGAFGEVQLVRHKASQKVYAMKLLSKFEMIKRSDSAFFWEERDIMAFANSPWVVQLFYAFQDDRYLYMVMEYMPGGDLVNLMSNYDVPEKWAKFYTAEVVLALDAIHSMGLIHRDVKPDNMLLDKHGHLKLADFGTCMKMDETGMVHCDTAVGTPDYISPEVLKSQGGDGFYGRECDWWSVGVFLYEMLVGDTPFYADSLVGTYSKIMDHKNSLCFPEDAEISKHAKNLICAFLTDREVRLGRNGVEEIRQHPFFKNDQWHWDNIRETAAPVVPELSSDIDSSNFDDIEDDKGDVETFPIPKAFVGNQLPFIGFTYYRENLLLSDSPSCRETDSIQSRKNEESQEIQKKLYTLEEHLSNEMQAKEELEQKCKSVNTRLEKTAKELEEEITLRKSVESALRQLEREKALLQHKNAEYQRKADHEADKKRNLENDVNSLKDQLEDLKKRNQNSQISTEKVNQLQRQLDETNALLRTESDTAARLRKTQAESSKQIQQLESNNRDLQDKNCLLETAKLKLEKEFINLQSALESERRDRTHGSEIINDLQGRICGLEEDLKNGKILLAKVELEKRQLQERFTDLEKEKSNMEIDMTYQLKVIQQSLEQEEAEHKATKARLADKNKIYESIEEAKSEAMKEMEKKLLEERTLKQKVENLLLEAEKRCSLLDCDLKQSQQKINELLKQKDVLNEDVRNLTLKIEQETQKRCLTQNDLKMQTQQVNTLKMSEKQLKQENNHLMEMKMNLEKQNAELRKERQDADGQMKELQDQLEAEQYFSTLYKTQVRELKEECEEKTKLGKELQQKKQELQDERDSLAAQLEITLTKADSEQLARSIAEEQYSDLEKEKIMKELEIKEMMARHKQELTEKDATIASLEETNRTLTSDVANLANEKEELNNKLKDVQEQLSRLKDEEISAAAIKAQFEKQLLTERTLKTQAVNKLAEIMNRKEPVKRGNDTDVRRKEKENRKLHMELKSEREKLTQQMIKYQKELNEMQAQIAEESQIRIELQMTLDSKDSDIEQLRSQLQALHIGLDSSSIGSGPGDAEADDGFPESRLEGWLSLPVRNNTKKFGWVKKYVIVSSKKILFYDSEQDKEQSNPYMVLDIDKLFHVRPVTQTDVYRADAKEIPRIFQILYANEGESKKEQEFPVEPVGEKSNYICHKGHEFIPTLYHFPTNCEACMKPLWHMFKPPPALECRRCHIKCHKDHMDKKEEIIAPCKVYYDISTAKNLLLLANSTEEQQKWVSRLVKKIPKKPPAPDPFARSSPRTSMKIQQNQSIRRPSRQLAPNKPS

[4] = molecular target: T1, ROCK1 (Homo sapiens (Human), UniProt Q13464); details: read-out: ROCK1 Average Ki; 1 μM ATP
T1 sequence (Q13464 2-1354 limits assumed): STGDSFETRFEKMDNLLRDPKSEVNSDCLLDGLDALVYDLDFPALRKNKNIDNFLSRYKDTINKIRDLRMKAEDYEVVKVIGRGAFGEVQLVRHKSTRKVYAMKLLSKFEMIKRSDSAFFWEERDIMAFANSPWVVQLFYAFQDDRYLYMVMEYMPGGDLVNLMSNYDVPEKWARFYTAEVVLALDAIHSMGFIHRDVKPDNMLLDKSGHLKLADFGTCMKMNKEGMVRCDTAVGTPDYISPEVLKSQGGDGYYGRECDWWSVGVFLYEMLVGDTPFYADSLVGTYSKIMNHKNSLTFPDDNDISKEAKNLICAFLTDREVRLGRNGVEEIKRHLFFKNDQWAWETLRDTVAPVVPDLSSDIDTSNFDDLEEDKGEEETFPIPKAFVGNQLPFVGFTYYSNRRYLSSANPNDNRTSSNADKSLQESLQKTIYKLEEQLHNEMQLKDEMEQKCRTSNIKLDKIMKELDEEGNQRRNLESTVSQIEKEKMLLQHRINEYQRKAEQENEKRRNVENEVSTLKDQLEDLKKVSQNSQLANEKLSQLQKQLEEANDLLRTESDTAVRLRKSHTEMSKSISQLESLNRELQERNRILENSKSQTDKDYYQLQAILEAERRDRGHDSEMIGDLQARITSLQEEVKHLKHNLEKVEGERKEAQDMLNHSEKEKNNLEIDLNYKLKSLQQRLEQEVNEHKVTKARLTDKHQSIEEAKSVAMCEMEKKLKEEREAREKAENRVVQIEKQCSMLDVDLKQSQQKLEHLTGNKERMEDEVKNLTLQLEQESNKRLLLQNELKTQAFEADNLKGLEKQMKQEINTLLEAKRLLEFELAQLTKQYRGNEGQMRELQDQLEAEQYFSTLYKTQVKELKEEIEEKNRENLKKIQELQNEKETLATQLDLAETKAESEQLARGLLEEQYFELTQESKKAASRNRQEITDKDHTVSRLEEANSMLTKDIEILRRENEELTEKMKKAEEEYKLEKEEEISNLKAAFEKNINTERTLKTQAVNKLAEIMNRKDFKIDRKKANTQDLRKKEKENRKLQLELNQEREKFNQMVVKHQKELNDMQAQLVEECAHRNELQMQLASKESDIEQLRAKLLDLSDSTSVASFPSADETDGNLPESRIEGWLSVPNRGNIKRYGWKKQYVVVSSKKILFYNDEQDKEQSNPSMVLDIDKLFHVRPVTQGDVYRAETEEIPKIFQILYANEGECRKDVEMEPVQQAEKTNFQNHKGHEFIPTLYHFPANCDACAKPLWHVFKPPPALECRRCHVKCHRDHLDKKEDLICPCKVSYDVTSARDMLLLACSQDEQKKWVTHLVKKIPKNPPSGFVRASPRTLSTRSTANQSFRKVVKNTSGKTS

[5] = molecular target: T1, ROCK1; experiment: biochemical

Chain of MRCKα (Q5VT25 whole entry): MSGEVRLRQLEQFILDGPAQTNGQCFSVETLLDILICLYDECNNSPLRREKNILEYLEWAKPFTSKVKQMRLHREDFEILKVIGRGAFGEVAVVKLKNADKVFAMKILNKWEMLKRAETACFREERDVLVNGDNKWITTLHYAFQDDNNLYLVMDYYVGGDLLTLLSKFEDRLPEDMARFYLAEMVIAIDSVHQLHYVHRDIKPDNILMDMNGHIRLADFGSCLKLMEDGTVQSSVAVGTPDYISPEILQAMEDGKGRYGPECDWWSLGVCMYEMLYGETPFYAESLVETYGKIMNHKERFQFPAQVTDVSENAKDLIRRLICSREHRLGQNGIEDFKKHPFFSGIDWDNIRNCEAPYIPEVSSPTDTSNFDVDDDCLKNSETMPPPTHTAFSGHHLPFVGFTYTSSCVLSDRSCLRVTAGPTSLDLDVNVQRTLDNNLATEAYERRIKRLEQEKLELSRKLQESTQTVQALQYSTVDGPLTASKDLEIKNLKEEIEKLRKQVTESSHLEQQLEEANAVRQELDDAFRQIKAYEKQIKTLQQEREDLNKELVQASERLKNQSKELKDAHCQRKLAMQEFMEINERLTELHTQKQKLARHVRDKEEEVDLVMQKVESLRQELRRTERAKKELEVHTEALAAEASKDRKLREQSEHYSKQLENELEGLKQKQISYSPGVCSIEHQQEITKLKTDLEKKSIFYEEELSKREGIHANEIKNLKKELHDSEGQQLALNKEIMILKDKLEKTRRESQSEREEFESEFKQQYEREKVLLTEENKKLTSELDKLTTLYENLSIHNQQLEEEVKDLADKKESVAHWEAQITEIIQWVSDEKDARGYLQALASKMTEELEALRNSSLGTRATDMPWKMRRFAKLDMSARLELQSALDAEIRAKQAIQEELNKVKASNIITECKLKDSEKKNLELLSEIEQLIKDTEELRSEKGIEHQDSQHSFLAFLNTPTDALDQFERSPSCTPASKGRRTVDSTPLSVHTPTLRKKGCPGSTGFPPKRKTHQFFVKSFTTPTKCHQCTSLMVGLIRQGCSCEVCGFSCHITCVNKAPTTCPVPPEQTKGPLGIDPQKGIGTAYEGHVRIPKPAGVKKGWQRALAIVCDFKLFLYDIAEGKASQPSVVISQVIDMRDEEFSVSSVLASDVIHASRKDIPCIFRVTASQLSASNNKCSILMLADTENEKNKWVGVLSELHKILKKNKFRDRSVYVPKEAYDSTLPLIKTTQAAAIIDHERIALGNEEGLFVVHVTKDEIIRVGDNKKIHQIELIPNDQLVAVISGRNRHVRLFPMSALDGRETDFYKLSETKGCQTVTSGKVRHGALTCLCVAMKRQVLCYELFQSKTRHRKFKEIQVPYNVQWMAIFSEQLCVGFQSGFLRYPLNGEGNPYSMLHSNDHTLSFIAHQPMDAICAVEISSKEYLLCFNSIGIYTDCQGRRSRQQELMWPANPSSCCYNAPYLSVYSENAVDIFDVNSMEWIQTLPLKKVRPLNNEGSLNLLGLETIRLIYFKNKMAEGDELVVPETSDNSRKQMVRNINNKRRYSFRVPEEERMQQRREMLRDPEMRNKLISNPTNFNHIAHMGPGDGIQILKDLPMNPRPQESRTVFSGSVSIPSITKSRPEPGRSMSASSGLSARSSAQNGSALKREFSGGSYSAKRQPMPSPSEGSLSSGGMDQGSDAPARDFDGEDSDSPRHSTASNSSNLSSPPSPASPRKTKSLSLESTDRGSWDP

| Ki [1] [nM] | Ki [2] [nM] | Ki [3] [nM] | Ki [4] [nM] | SMILES | Ki [5] [nM] |
| --- | --- | --- | --- | --- | --- |
| 2.93 | 2.34 | 545 | 50700 | CN[C@H]1CCCN(c2ccnc3[nH]cc(-c4cncnc4)c23)C1 [Example E57, (3S)-N-methyl-1-(3-pyrimidin-5-yl-1H-pyrrolo[2,3-b]pyridin-4-yl)piperidin-3-amine] | – |
| 0.382 | 1.09 | 36.9 | 55.9 | CNC1CCCN(c2ccnc3[nH]cc(-c4cncnc4)c23)CC1 (centres unmarked) [Example E68, N-methyl-1-(3-pyrimidin-5-yl-1H-pyrrolo[2,3-b]pyridin-4-yl)azepan-4-amine] | – |
| 0.629 | 2.98 | 268 | 51100 | CN[C@H]1CCCN(c2ccnc3[nH]cc(-c4cnccn4)c23)C1 [Example E72, (3S)-N-methyl-1-(3-pyrazin-2-yl-1H-pyrrolo[2,3-b]pyridin-4-yl)piperidin-3-amine] | – |
| 3.48 | 8.51 | 61.5 | 105 | CCN[C@H]1CCCN(c2ccnc3[nH]cc(-c4cnn(C)c4)c23)C1 [Example E78, (3S)-N-ethyl-1-[3-(1-methylpyrazol-4-yl)-1H-pyrrolo[2,3-b]pyridin-4-yl]piperidin-3-amine] | – |
| 1.23 | 2.27 | 448 | 50700 | CCN[C@H]1CCCN(c2ccnc3[nH]cc(-c4cncnc4)c23)C1 [Example E79, (3S)-N-ethyl-1-(3-pyrimidin-5-yl-1H-pyrrolo[2,3-b]pyridin-4-yl)piperidin-3-amine] | – |
| 0.935 | 3.36 | 184 | 357 | c1ncc(-c2c[nH]c3nccc(N4CCC[C@H](NC5CC5)C4)c23)cn1 [Example E81, (3S)-N-cyclopropyl-1-(3-pyrimidin-5-yl-1H-pyrrolo[2,3-b]pyridin-4-yl)piperidin-3-amine] | – |
| 0.522 | 3.42 | 37.2 | 167 | CN[C@H]1CCCN(c2ccnc3[nH]cc(-c4cn[nH]c4)c23)C1 [Example E84, (3S)-N-methyl-1-[3-(1H-pyrazol-4-yl)-1H-pyrrolo[2,3-b]pyridin-4-yl]piperidin-3-amine] | – |
| 4.6 | 1.85 | 10.5 | 8.2 | NCC1CCCN(c2ccnc3[nH]cc(-c4cncnc4)c23)C1 (centres unmarked) [Example E86, [1-(3-pyrimidin-5-yl-1H-pyrrolo[2,3-b]pyridin-4-yl)-3-piperidyl]methanamine] | – |
| 19.4 | 6.98 | 395 | 689 | FC1CCN([C@H]2CCCN(c3ccnc4[nH]cc(-c5cncnc5)c34)C2)C1 (stereo partly drawn) [Example E95, 4-[(3S)-3-(3-fluoropyrrolidin-1-yl)-1-piperidyl]-3-pyrimidin-5-yl-1H-pyrrolo[2,3-b]pyridine] | – |
| 5.2 | 3.93 | 366 | 686 | c1ncc(-c2c[nH]c3nccc(N4CCC[C@H](N5CCC5)C4)c23)cn1 [Example E97, 4-[(3S)-3-(azetidin-1-yl)-1-piperidyl]-3-pyrimidin-5-yl-1H-pyrrolo[2,3-b]pyridine] | – |
| 7.9 | 4.24 | 979 | 2530 | c1ncc(-c2c[nH]c3nccc(N4CCC[C@H](N5CCCCC5)C4)c23)cn1 [Example E98, 4-[(3S)-3-(1-piperidyl)-1-piperidyl]-3-pyrimidin-5-yl-1H-pyrrolo[2,3-b]pyridine] | – |
| 5.8 | 3.81 | 603 | 1680 | c1ncc(-c2c[nH]c3nccc(N4CCC[C@H](N5CCCC5)C4)c23)cn1 [Example E99, 3-pyrimidin-5-yl-4-[(3S)-3-pyrrolidin-1-yl-1-piperidyl]-1H-pyrrolo[2,3-b]pyridine] | – |
| 4.6 | 1.44 | 2.44 | 2.77 | C[C@@H]1CCCN1c1ccnc2[nH]cc(C#N)c12 [Example E110, 4-[(2R)-2-methylpyrrolidin-1-yl]-1H-pyrrolo[2,3-b]pyridine-3-carbonitrile] | – |
| 123 | 39.7 | 25.5 | 85.2 | C[C@H]1CCCN1c1ccnc2[nH]cc(C#N)c12 [Example E111, 4-[(2S)-2-methylpyrrolidin-1-yl]-1H-pyrrolo[2,3-b]pyridine-3-carbonitrile] | – |
| 2.89 | 1.47 | 299 | 50300 | c1cc(-c2c[nH]c3nccc(N4CCC[C@]5(CCCCN5)C4)c23)ncn1 [Example E118, (6R)-8-(3-pyrimidin-4-yl-1H-pyrrolo[2,3-b]pyridin-4-yl)-1,8-diazaspiro[5.5]undecane] | – |
| 1.34 | 1.04 | 100000 | 100000 | c1cnc(-c2c[nH]c3nccc(N4CCCC5(CCCCN5)C4)c23)nc1 (centres unmarked) [Example E157, 8-(3-pyrimidin-2-yl-1H-pyrrolo[2,3-b]pyridin-4-yl)-1,8-diazaspiro[5.5]undecane] | – |
| 0.257 | 1.5 | 547 | 1860 | c1cnnc(-c2c[nH]c3nccc(N4CCCC5(CCCCN5)C4)c23)c1 (centres unmarked) [Example E175, 8-(3-pyridazin-3-yl-1H-pyrrolo[2,3-b]pyridin-4-yl)-1,8-diazaspiro[5.5]undecane] | – |
| 9.1 | 9.45 | 15.4 | 25 | c1cc(-c2c[nH]c3nccc(N4CCCCC4)c23)[nH]n1 [Example E181, 4-(1-piperidyl)-3-(1H-pyrazol-5-yl)-1H-pyrrolo[2,3-b]pyridine] | – |
| 9 | 18.8 | 90 | 132 | c1cncc(-c2c[nH]c3nccc(N4CCCCC4)c23)c1 [Example E182, 4-(1-piperidyl)-3-(3-pyridyl)-1H-pyrrolo[2,3-b]pyridine] | – |
| 12.6 | 6.03 | 12.3 | 31 | c1cc(N2CCCCC2)c2c(-c3cn[nH]c3)c[nH]c2n1 [Example E183, 4-(1-piperidyl)-3-(1H-pyrazol-4-yl)-1H-pyrrolo[2,3-b]pyridine] | – |
| – | – | – | – | N#Cc1c[nH]c2nccc(N3CCC4(CCCCN4)C3)c12 (centres unmarked) [Example E184, 4-(2,6-diazaspiro[4.5]decan-2-yl)-1H-pyrrolo[2,3-b]pyridine-3-carbonitrile] | 21.9 |
| 0.598 | 1.52 | 28.8 | 93.6 | Cn1cc(-c2c[nH]c3nccc(N4CCCC5(CCCCN5)C4)c23)cn1 (centres unmarked) [Example E188, 8-[3-(1-methylpyrazol-4-yl)-1H-pyrrolo[2,3-b]pyridin-4-yl]-1,8-diazaspiro[5.5]undecane] | – |
| 0.131 | 1.31 | 167 | 643 | c1cnc(-c2c[nH]c3nccc(N4CCCC5(CCCCN5)C4)c23)cn1 (centres unmarked) [Example E189, 8-(3-pyrazin-2-yl-1H-pyrrolo[2,3-b]pyridin-4-yl)-1,8-diazaspiro[5.5]undecane] | – |
| 0.217 | 0.969 | 15.2 | 22.3 | c1ncc(-c2c[nH]c3nccc(N4CCC5(CCCNC5)CC4)c23)cn1 [Example E193, 9-(3-pyrimidin-5-yl-1H-pyrrolo[2,3-b]pyridin-4-yl)-2,9-diazaspiro[5.5]undecane] | – |
| 0.652 | 2.73 | 54 | 83.6 | c1ncc(-c2c[nH]c3nccc(N4CCCC5(CCCNC5)C4)c23)cn1 (centres unmarked) [Example E194, 2-(3-pyrimidin-5-yl-1H-pyrrolo[2,3-b]pyridin-4-yl)-2,8-diazaspiro[5.5]undecane] | – |
| 4.69 | 3.27 | 174 | 332 | c1ncc(-c2c[nH]c3nccc(N4CCCC5(CCCN5)C4)c23)cn1 (centres unmarked) [Example E195, 9-(3-pyrimidin-5-yl-1H-pyrrolo[2,3-b]pyridin-4-yl)-1,9-diazaspiro[4.5]decane] | – |
| 5.1 | 134000 | 177 | 213 | c1ncc(-c2c[nH]c3nccc(N4CCCC5(CCCCN5)C4)c23)cn1 (centres unmarked) [Example E196, 8-(3-pyrimidin-5-yl-1H-pyrrolo[2,3-b]pyridin-4-yl)-1,8-diazaspiro[5.5]undecane] | – |
| 1.13 | 1.78 | 55.8 | 66.8 | c1ncc(-c2c[nH]c3nccc(OC4CCCNCC4)c23)cn1 (centres unmarked) [Example E216, 4-(azepan-4-yloxy)-3-pyrimidin-5-yl-1H-pyrrolo[2,3-b]pyridine] | – |
| 2.52 | 3.71 | 52.6 | 57.6 | c1ncc(-c2c[nH]c3nccc(OC[C@@H]4CCNC4)c23)cn1 [Example E219, 3-pyrimidin-5-yl-4-[[(3R)-pyrrolidin-3-yl]methoxy]-1H-pyrrolo[2,3-b]pyridine] | – |

| SMILES | Ki [1] [nM] | Ki [2] [nM] | Ki [3] [nM] | Ki [4] [nM] | Ki [5] [nM] |
| --- | --- | --- | --- | --- | --- |
| N[C@H]1CCCN(c2ccnc3[nH]cc(-c4cncnc4)c23)C1 [Example E69, (3S)-1-(3-pyrimidin-5-yl-1H-pyrrolo[2,3-b]pyridin-4-yl)piperidin-3-amine] | 4.5 | 2.72 | 274 | 460 | – |
| CN(C)[C@H]1CCCN(c2ccnc3[nH]cc(-c4cncnc4)c23)C1 [Example E82, (3S)-N,N-dimethyl-1-(3-pyrimidin-5-yl-1H-pyrrolo[2,3-b]pyridin-4-yl)piperidin-3-amine] | 17.2 | 13.1 | 362 | 648 | – |
| c1ncc(-c2c[nH]c3nccc(O[C@H]4CCCNC4)c23)cn1 [Example E222, 4-[[(3S)-3-piperidyl]oxy]-3-pyrimidin-5-yl-1H-pyrrolo[2,3-b]pyridine] | 28.4 | 50.6 | 50700 | 50900 | – |
